In ChEMBL document CHEMBL1147879, “Synthesis of soluble multivalent glycoconjugates that target the Hc region of botulinum neurotoxin A” (Bioorg Med Chem Lett, 2007):
Active and inactive are the calls of the source. No cut-off for these calls is given here.

Molecular target: Synaptosomal-associated protein 25 (Rattus norvegicus) (UniProt P60881)
Experiment: Inhibition of BoNT/A-mediated SNAP25 cleavage in rat spinal card cells after 24 hrs by Western blot analysis
Type: cell-based

Synaptosomal-associated protein 25 (Rattus norvegicus), sequence (P60881 whole entry, looked up): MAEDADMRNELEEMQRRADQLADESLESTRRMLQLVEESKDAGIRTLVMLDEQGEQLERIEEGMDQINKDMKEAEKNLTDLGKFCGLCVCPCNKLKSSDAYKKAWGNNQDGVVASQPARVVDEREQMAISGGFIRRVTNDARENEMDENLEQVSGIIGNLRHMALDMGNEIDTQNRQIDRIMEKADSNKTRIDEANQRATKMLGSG

## CC(=O)N[C@@H]1[C@@H]([C@@H](C)C(O)CCO)O[C@](SCC(=O)NCCOCCOCCOCCn2cc(CNC(=O)c3cc(NC(=O)CN)cc(C(=O)NCc4cn(CCOCCOCCOCCNC(=O)CS[C@]5(C(=O)O)C[C@H](O)[C@@H](NC(C)=O)[C@H]([C@H](C)C(O)CCO)O5)nn4)c3)nn2)(C(=O)O)C[C@H]1O (some centres not stated)
  Activity: Active

## CC(=O)N[C@@H]1[C@@H]([C@@H](C)C(O)CCO)O[C@](SCC(=O)NCCOCCOCCOCCn2cc(CNC(=O)c3cc(NC(=O)CNC(=O)c4cc(NC(=O)CN)cc(C(=O)NCC(=N)Nc5cc(C(=O)NCc6cn(CCOCCOCCOCCNC(=O)CS[C@@]7(C(=O)O)C[C@@H](O)[C@H](NC(C)=O)[C@@H]([C@@H](C)C(O)CCO)O7)nn6)cc(C(=O)NCc6cn(CCOCCOCCOCCNC(=O)CS[C@@]7(C(=O)O)C[C@@H](O)[C@H](NC(C)=O)[C@@H]([C@@H](C)C(O)CCO)O7)nn6)c5)c4)cc(C(=O)NCc4cn(CCOCCOCCOCCNC(=O)CS[C@]5(C(=O)O)C[C@H](O)[C@@H](NC(C)=O)[C@H]([C@H](C)C(O)CCO)O5)nn4)c3)nn2)(C(=O)O)C[C@H]1O (some centres not stated)
  Activity: Active
